Source: patent US8999956B2, “N-[(het)arylalkyl)] pyrazole(thio)carboxamides and their heterosubstituted analogues” (Bayer Intellectual Property GmbH, priority 2010, dated 2015)

Test: log P by HPLC on reversed-phase column (EEC Directive 79/831 Annex V.A8)
Type: physicochemical
Settings: not given
Procedure: In table 1, the log P values were determined in accordance with EEC Directive 79/831 Annex V.A8 by HPLC (High Performance Liquid Chromatography) on a reversed-phase column (C18), using the method described below: Temperature: 40° C.; […]
With Cc1ccc(C(C)CCN(C)C(=O)c2c(C(F)F)nn(C)c2Cl)o1 (stereo not shown) [Example 110] the logP was 3.02. CCCN(CCOc1c(Cl)cc(Cl)cc1Cl)C(=O)c1c(C(F)F)nn(C)c1Cl [Example 205] gave a logP of 4.56. For CCCN(C(=O)c1c(C(F)F)nn(C)c1F)C(C)COc1ccccc1-c1ccccc1 (stereo not shown) [Example 30], the logP was 4.32. Cn1nc(C(F)F)c(C(=O)N(CCOc2ccc(Cl)cc2)C2CCCC2)c1Cl [Example 51] gave a logP of 4.32. Cc1ccc(SCC(C2CC2)N(C)C(=O)c2c(C(F)F)nn(C)c2Cl)cc1 (stereo not shown) [Example 41] gave a logP of 3.85. Work on Cn1nc(C(F)F)c(C(=O)N(CC#Cc2ccccc2)C(C)(C)C)c1Cl [Example 268] yielded a logP of 3.96. Cn1nc(C(F)F)c(C(=O)N(CC#Cc2ccccc2)C2CCCC2)c1F [Example 273] showed a logP of 3.73. CCCN(CCOc1ccc(C(=O)OCC)cc1)C(=O)c1c(C(F)F)nn(C)c1F [Example 73] gave a logP of 3.31. Cn1nc(C(F)F)c(C(=S)NC2CCCCC2CCC(C)(C)C)c1Cl (stereo not shown) [Example 356] gave a logP of 5.60. CC(CCc1ncc(C(F)(F)F)cc1Cl)N(C)C(=O)c1c(C(F)F)nn(C)c1Cl (stereo not shown) [Example 88] showed a logP of 3.45. CC(C)N(CCOc1c(Cl)cc(Cl)cc1Cl)C(=O)c1c(C(F)F)nn(C)c1Cl [Example 208] gave a logP of 4.71. With Cn1nc(C(F)F)c(C(=O)NC(C)(C)C(=O)Nc2ccccc2)c1Cl [Example 25] the logP was 2.27. In the case of Cn1nc(C(F)F)c(C(=O)N(CC#Cc2ccccc2)C(C)(C)C)c1F [Example 267], the logP is reported as 3.83. In the case of Cn1nc(C(F)F)c(C(=O)N(CC#Cc2ccco2)C2CC2)c1F [Example 279], the logP is reported as 2.70. For Cn1nc(C(F)F)c(C(=O)N(CC#Cc2ccccc2)C2CC2)c1Cl [Example 272], the logP was 3.33. Compound COCCCCNC(=O)c1c(C(F)F)nn(C)c1F [Example 305] has a logP of 1.40. With CC(C)N(CCOc1ccc(Cl)cc1)C(=O)c1c(C(F)F)nn(C)c1F [Example 56] the logP was 3.62. In the case of Cn1nc(C(F)F)c(C(=O)N(CC#Cc2cc3ccccc3s2)C2CC2)c1F [Example 276], the logP is reported as 3.85. Work on COCCN(CC=Cc1ccccc1)C(=O)c1c(C(F)F)nn(C)c1Cl [Example 265] yielded a logP of 3.02. CN(CC(=O)OCc1ccccc1)C(=O)c1c(C(F)F)nn(C)c1Cl [Example 228] gave a logP of 2.57. With CCCC1CCCCC1NC(=S)c1c(C(F)F)nn(C)c1F (stereo not shown) [Example 345] the logP was 4.21. CC(C)C(C(=O)OCc1ccccc1)N(C)C(=O)c1c(C(F)F)nn(C)c1Cl (stereo not shown) [Example 229] showed a logP of 3.48. Cn1nc(C(F)F)c(C(=O)NC2(C(=O)Nc3ccccc3)CCCC2)c1F [Example 3] showed a logP of 2.46. Work on Cc1ccc2sc(C#CCN(C(=O)c3c(C(F)F)nn(C)c3F)C3CC3)cc2c1 [Example 285] yielded a logP of 4.26. Work on CCCN(C(=O)c1c(C(F)F)nn(C)c1Cl)C(C)COc1ccccc1-c1ccccc1 (stereo not shown) [Example 31] yielded a logP of 4.51. Cn1nc(C(F)F)c(C(=O)N(CC#Cc2cc3ccccc3o2)C2CC2)c1F [Example 275] showed a logP of 3.55. With Cn1nc(C(F)F)c(C(=O)NCCCc2cc3ccccc3o2)c1F [Example 92] the logP was 2.90. CN(CCCc1cc2ccccc2s1)C(=O)c1c(C(F)F)nn(C)c1F [Example 96] gave a logP of 3.25. In the case of CN(CC(NC(=O)c1c(C(F)F)nn(C)c1Cl)C1CC1)c1ccccc1 (stereo not shown) [Example 18], the logP is reported as 3.31. For Cn1nc(C(F)F)c(C(=O)NCCS(=O)(=O)c2ccc(Cl)cc2)c1Cl [Example 59], the logP was 2.30. CN(CC(=O)OCc1ccccc1)C(=O)c1c(C(F)F)nn(C)c1F [Example 226] showed a logP of 2.44. CCCN(CCOc1ccc(Cl)cc1)C(=O)c1c(C(F)F)nn(C)c1Cl [Example 54] showed a logP of 3.67. Cn1nc(C(F)F)c(C(=O)N(CCOc2ccc(Cl)cc2)C2CCC2)c1F [Example 50] gave a logP of 3.78. Compound Cn1nc(C(F)F)c(C(=O)NCCOc2cccc(Oc3ccccc3)c2)c1Cl [Example 75] has a logP of 3.60. CN(CC#Cc1ccco1)C(=O)c1c(C(F)F)nn(C)c1F [Example 281] gave a logP of 2.32. In the case of Cc1ccc2sc(CCCN(C(=O)c3c(C(F)F)nn(C)c3F)C3CC3)cc2c1 [Example 106], the logP is reported as 4.21. With Cc1ccsc1C#CCN(C(=O)c1c(C(F)F)nn(C)c1F)C1CC1 [Example 283] the logP was 3.31. Compound CCCN(CCCOc1c(C)cc(C)cc1C)C(=O)c1c(C(F)F)nn(C)c1F [Example 235] has a logP of 4.27. CC(CC[Si](C)(C)C)N(C(=O)c1c(C(F)F)nn(C)c1F)C1CC1 (stereo not shown) [Example 304] showed a logP of 4.39. CCCN(CC(=O)Nc1c(Cl)cc(Cl)cc1Cl)C(=O)c1c(C(F)F)nn(C)c1Cl [Example 199] gave a logP of 3.11. Compound CC(C)N(CCOc1c(Cl)cc(Cl)cc1Cl)C(=O)c1c(C(F)F)nn(C)c1F [Example 203] has a logP of 4.51. Work on CON(CCC(C)c1ccc(C)o1)C(=O)c1c(C(F)F)nn(C)c1F (stereo not shown) [Example 112] yielded a logP of 3.23. Compound Cn1nc(C(F)F)c(C(=O)N(C2CC2)C2CCCCC2C2CCCCC2)c1Cl (stereo not shown) [Example 373] has a logP of 5.59. Cn1nc(C(F)F)c(C(=O)N(CCCc2ccco2)C2CC2)c1F [Example 99] showed a logP of 2.75. CC(CCc1cccs1)N(C(=O)c1c(C(F)F)nn(C)c1Cl)C1CC1 (stereo not shown) [Example 103] showed a logP of 3.57. Cn1nc(C(F)F)c(C(=O)N(CC#Cc2ccccc2)C2CCCC2)c1Cl [Example 274] gave a logP of 3.92. With CN(CCN(C)C(=O)c1c(C(F)F)nn(C)c1F)C(=O)c1ccccc1 [Example 230] the logP was 1.66. For CN(C(=O)c1c(C(F)F)nn(C)c1Cl)C1CCCCC1Cc1ccccc1 (stereo not shown) [Example 254], the logP was 3.87. Work on CC(CCc1ccc(Cl)cc1Cl)NC(=O)c1c(C(F)F)nn(C)c1F (stereo not shown) [Example 186] yielded a logP of 3.79. Cn1nc(C(F)F)c(C(=O)N(CCOc2ccc(Cl)cc2)C2CCC2)c1Cl [Example 52] gave a logP of 3.99. In the case of Cn1nc(C(F)F)c(C(=S)NC2CCCC2CCC(C)(C)C)c1F (stereo not shown) [Example 321], the logP is reported as 5.01. For CC(C)C(C(=O)OCc1ccccc1)N(C)C(=O)c1c(C(F)F)nn(C)c1F (stereo not shown) [Example 227], the logP was 3.35. For Cn1nc(C(F)F)c(C(=O)NC2(C(F)(F)F)CCCCC2)c1Cl [Example 386], the logP was 3.15. CC(CSCc1ccco1)N(C)C(=O)c1c(C(F)F)nn(C)c1F (stereo not shown) [Example 238] gave a logP of 2.49. With CC1CC(N(C(=S)c2c(C(F)F)nn(C)c2F)C2CC2)CC(C)(C)C1 (stereo not shown) [Example 323] the logP was 4.96. For CN(CCC(=O)Nc1ccc(Cl)c(Cl)c1)C(=O)c1c(C(F)F)nn(C)c1F [Example 232], the logP was 2.71. Compound CC(CCc1ncc(C(F)(F)F)cc1Cl)N(C)C(=O)c1c(C(F)F)nn(C)c1F (stereo not shown) [Example 87] has a logP of 3.29. With CCCN(CCOc1ccccc1)C(=O)c1c(C(F)F)nn(C)c1F [Example 8] the logP was 3.06. Work on C#CC1(NC(=O)c2c(C(F)F)nn(C)c2F)CCCCC1 [Example 385] yielded a logP of 2.56. Compound CC#CC1(NC(=O)c2c(C(F)F)nn(C)c2F)CCCCC1 [Example 382] has a logP of 2.90. With C=CCC1CCCCC1N(C(=O)c1c(C(F)F)nn(C)c1F)C1CC1 (stereo not shown) [Example 346] the logP was 3.94. Work on CN(CCCc1cccs1)C(=O)c1c(C(F)F)nn(C)c1F [Example 104] yielded a logP of 2.52. In the case of Cn1nc(C(F)F)c(C(=O)NC2CCCCC2C2CCCCC2)c1Cl (stereo not shown) [Example 375], the logP is reported as 4.56. Cc1cc(C)nc(CCC(C)NC(=O)c2c(C(F)F)nn(C)c2Cl)c1 (stereo not shown) [Example 64] showed a logP of 1.81. For Cn1nc(C(F)F)c(C(=O)NC2(C(F)(F)F)CCCCC2)c1F [Example 387], the logP was 3.00. For CC(O)C1CCCCC1NC(=O)c1c(C(F)F)nn(C)c1F (single isomer, unassigned) [Example 342], the logP was 2.08 isomer B. In the case of CC(CC1CCCCC1)N(C(=O)c1c(C(F)F)nn(C)c1Cl)C1CC1 (stereo not shown) [Example 371], the logP is reported as 4.56. Work on Cc1ccc(C#CCN(C(=O)c2c(C(F)F)nn(C)c2F)C2CC2)s1 [Example 286] yielded a logP of 3.37. Work on CCCCCCC1CCCCC1NC(=S)c1c(C(F)F)nn(C)c1F (stereo not shown) [Example 327] yielded a logP of 5.81. Cc1ccc(C(C)CCN(C(=O)c2c(C(F)F)nn(C)c2F)C2CC2)o1 (stereo not shown) [Example 107] gave a logP of 3.41. With CCCN(CCOc1ccccc1)C(=O)c1c(C(F)F)nn(C)c1Cl [Example 7] the logP was 3.21. Compound C#CC1(NC(=O)c2c(C(F)F)nn(C)c2Cl)CCCCC1 [Example 384] has a logP of 2.73. Work on CC(CSCc1ccco1)N(C)C(=O)c1c(C(F)F)nn(C)c1Cl (stereo not shown) [Example 239] yielded a logP of 2.64. Compound Cn1nc(C(F)F)c(C(=O)NC(C)(C)C(=O)Nc2ccccc2)c1F [Example 24] has a logP of 2.10. Cn1nc(C(F)F)c(C(=O)NC(CSc2ccccc2)C2CC2)c1Cl (stereo not shown) [Example 23] gave a logP of 3.44. With CCC(COc1cccc2ccccc12)NC(=O)c1c(C(F)F)nn(C)c1Cl (stereo not shown) [Example 223] the logP was 3.85. CC(C)N(CC(=O)Nc1ccccc1)C(=O)c1c(C(F)F)nn(C)c1F [Example 1] gave a logP of 2.25. Work on Cn1nc(C(F)F)c(C(=O)N(C2CC2)C2CCCCC2C2=CCCCC2)c1Cl (stereo not shown) [Example 377] yielded a logP of 5.17. For CN(C(=O)c1c(C(F)F)nn(C)c1Cl)C(COc1ccccc1Cl)C1CC1 (racemic) [Example 146], the logP was 3.67. In the case of CC(CCc1ncc(C(F)(F)F)cc1Cl)N(C(=O)c1c(C(F)F)nn(C)c1F)C1CC1 (stereo not shown) [Example 86], the logP is reported as 3.92. With CC(C)N(CC(=O)Nc1ccccc1)C(=O)c1c(C(F)F)nn(C)c1Cl [Example 2] the logP was 2.43. CN(CC#Cc1ccccc1)C(=O)c1c(C(F)F)nn(C)c1F [Example 269] gave a logP of 2.78. Compound CCCN(CCOc1ccc(Cl)cc1)C(=O)c1c(C(F)F)nn(C)c1F [Example 57] has a logP of 3.53.

Same assay, conditions: HPLC on reversed-phase column (C18), 40° C., 0.1% aqueous formic acid and acetonitrile, linear gradient 10% to 90% acetonitrile
With CC1CCCC(Cc2cccc(Cl)c2)C1NC(=O)c1c(C(F)F)nn(C)c1Cl (stereo not shown) [Example 80] the logP was 4.51.

Same assay, conditions: reversed-phase HPLC column (C18), HPLC, 0.1% aqueous formic acid and acetonitrile, 40° C.; read-out: log P
CC(C)(C)C#Cc1cccc(N)c1 [3-(3,3-dimethylbut-1-yn-1-yl)aniline] gave a chromatographic logP of 2.71.
